Source: patent publication US10479795B2 (Incyte Corporation, priority 2016, dated 2019)
Like-named read-outs stand apart in the source and are kept apart here.

Assays:
[1] = system: Phosphorylated Ribosomal Protein S6 (RPS6); test: THP-1 RPS6 ELISA Assay; assay type: cell-based, Human; conditions: THP-1 cells, read-out: PI3Kγ_THP1_RPS6_ELISA IC50
Procedure, shortened: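 IC50 values come from a curve of percent inhibition against log compound concentration, using phospho-RPS6 ELISA (450 nm) on THP-1 lysates. Cells were serum-starved overnight, exposed to compound for 2 h at 37 °C, then challenged 15 min with 10 nM MCP-1.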

[2] = target: PI3Kγ (p110γ) Recombinant Human Protein (Homo sapiens (Human), UniProt P48736); test: PI3K-γ Scintillation Proximity Assay; assay type: biochemical; conditions: read-out: PI3Kγ IC50
Procedure, shortened: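 Radiometric SPA readout: […] bound to WGA beads after overnight shaking, IC50 derived from % activity of DMSO control. Reaction used human p110γ, 2 μM ATP, 20 μM PIP2, pH 6.7 MOPS buffer with MgCl2, DTT, CHAPS, 2% DMSO, room temperature.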

[3] = target: PI3Kδ (p110δ/p85α) Recombinant Human Protein (Homo sapiens (Human), UniProt O00329); test: PI3Kδ Scintillation Proximity Assay; assay type: biochemical
Procedure, shortened: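 Radiometric read-out: 33P-labelled PIP3 product captured on WGA SPA beads and counted, with IC50 fitted from percent activity relative to DMSO control. Enzyme (3.4 nM) was incubated 120 min at room temperature with 20 μM PIP2 and 2 μM ATP at pH 6.7, 2% DMSO.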

PI3Kγ (p110γ) Recombinant Human Protein, sequence (P48736 whole entry): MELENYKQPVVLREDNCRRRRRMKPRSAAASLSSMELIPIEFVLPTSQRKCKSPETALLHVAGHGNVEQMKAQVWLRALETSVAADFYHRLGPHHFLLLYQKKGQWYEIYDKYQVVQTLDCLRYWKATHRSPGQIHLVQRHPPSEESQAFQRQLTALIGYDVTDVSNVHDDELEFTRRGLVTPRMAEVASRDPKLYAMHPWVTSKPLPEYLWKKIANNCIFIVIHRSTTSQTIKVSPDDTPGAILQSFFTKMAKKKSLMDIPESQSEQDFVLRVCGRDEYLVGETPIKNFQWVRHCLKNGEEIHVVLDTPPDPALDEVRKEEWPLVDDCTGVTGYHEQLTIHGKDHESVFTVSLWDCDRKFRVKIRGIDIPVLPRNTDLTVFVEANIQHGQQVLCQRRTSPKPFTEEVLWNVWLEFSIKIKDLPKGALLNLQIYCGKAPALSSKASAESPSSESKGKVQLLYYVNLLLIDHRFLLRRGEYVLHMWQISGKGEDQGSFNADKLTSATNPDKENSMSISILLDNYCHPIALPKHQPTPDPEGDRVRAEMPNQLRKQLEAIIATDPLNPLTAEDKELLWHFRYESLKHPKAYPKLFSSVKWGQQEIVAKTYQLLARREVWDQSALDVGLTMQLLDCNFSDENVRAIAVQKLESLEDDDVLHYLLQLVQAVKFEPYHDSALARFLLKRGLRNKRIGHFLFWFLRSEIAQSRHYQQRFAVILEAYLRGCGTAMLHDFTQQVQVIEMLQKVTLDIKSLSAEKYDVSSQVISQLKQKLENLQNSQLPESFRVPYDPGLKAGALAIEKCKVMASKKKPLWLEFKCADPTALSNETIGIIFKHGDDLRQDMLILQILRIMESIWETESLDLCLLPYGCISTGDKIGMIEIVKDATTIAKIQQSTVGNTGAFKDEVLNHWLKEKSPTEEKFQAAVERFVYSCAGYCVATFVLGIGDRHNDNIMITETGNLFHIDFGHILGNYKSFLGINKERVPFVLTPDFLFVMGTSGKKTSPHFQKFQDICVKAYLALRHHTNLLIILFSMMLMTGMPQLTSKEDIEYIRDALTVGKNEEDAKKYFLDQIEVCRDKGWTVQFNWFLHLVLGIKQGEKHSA
PI3Kδ (p110δ/p85α) Recombinant Human Protein, sequence (O00329 whole entry): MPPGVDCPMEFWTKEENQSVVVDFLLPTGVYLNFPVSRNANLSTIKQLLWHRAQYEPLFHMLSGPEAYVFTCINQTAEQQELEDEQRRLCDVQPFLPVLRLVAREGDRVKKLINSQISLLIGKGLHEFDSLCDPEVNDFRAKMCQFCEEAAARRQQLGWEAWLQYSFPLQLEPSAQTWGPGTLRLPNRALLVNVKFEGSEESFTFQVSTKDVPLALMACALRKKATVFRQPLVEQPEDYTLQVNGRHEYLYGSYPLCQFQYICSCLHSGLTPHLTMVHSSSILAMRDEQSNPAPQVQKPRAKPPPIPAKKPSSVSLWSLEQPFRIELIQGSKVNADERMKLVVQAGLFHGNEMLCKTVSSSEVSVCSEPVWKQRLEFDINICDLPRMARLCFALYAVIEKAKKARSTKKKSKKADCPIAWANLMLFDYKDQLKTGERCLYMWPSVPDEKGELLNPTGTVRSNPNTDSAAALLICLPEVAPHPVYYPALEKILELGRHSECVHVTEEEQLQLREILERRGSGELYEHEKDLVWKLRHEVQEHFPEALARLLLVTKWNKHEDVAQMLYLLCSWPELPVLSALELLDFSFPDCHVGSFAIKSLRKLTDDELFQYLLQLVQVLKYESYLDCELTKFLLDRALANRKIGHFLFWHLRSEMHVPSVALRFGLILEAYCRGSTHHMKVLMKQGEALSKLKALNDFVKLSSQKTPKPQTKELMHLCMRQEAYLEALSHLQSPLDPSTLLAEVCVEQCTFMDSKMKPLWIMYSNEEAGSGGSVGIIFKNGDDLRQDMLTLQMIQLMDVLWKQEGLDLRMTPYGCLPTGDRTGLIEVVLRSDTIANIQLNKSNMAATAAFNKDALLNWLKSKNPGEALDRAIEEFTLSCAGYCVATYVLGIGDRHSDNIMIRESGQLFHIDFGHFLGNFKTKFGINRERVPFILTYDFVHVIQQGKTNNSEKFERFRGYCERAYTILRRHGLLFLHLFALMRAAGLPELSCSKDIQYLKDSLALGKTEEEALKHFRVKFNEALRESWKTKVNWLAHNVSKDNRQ
PI3Kδ (p110δ/p85α) Recombinant Human Protein, sequence (P27986 whole entry partner): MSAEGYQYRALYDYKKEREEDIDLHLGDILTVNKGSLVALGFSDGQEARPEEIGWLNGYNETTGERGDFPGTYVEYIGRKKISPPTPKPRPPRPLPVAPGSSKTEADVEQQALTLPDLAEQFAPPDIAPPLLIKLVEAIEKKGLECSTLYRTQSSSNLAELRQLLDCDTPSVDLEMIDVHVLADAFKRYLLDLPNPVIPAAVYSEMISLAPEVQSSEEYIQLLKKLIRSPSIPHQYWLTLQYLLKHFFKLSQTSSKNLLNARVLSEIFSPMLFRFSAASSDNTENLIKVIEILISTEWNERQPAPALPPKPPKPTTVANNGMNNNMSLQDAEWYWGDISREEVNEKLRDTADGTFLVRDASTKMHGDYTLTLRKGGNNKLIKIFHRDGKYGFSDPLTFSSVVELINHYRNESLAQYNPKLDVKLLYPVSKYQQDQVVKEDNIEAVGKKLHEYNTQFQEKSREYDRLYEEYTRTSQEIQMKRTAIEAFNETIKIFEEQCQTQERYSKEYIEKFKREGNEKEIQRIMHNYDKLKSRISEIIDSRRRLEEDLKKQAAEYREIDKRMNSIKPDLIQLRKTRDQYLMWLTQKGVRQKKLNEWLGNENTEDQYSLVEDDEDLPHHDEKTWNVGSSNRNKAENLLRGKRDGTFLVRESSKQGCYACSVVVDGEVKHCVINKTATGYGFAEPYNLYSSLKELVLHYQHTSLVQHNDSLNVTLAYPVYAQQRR

Compound | IC50 ([1]; Homo sapiens) [nM] | IC50 [2] [nM] | IC50 [3] [nM] | IC50 [1] [nM]
Cc1ccc(S(=O)(=O)N[C@H]2CC[C@H](C(C)(C)O)CC2)cc1-c1cnc2c(N)ncnn12 [Example 125, 3-(4-aminoimidazo[2,1-f][1,2,4]triazin-7-yl)-N-[trans-4-(1-hydroxy-1-methylethyl)cyclohexyl]-4-methylbenzenesulfonamide] | > 1000 | < 100 | 500 to 2000 | 
Cc1ccc(S(=O)(=O)NC2CC(CO)(CO)C2)cc1-c1cnc2c(N)ncnn12 [Example 126, 3-(4-aminoimidazo[2,1-f][1,2,4]triazin-7-yl)-N-[3,3-bis(hydroxymethyl)cyclobutyl]-4-methylbenzenesulfonamide] | 100 to 500 | < 100 | 500 to 2000 | 
Cc1ccc(S(=O)(=O)N[C@]2(C)CC[C@@H](O)CC2)cc1-c1cnc2c(N)ncnn12 [Example 127, 3-(4-aminoimidazo[2,1-f][1,2,4]triazin-7-yl)-N-(trans-4-hydroxy-1-methylcyclohexyl)-4-methylbenzenesulfonamide] |  | < 100 | 500 to 2000 | 100 to 500
Cc1ccc(S(=O)(=O)N2CC(CO)C2)cc1-c1cnc2c(N)ncnn12 [Example 128, (1-((3-(4-aminoimidazo[2,1-f][1,2,4]triazin-7-yl)-4-methylphenyl)sulfonyl)azetidin-3-yl)methanol] | 100 to 500 | < 100 | 100 to 500 | 
Cc1ccc(S(=O)(=O)NCCN2CCS(=O)(=O)CC2)cc1-c1cnc2c(N)ncnn12 [Example 129, 3-(4-aminoimidazo[2,1-f][1,2,4]triazin-7-yl)-N-(2-(1,1-dioxidothiomorpholino)ethyl)-4-methylbenzenesulfonamide] | < 100 | < 100 | 100 to 500 | 
Cc1ccc(S(=O)(=O)NCC2CCC(F)(F)CC2)cc1-c1cnc2c(N)ncnn12 [Example 130, 3-(4-aminoimidazo[2,1-f][1,2,4]triazin-7-yl)-N-((4,4-difluorocyclohexyl)methyl)-4-methylbenzenesulfonamide] | 500 to 1000 | < 100 | 500 to 2000 | 
Cc1ccc(S(=O)(=O)N2CC(F)C2)cc1-c1cnc2c(N)ncnn12 [Example 131, 7-(5-((3-fluoroazetidin-1-yl)sulfonyl)-2-methylphenyl)imidazo[2,1-f][1,2,4]triazin-4-amine] | > 1000 | 100 to 500 | 500 to 2000 | 
Cc1ccc(S(=O)(=O)NC2CC(F)(F)C2)cc1-c1cnc2c(N)ncnn12 [Example 132, 3-(4-aminoimidazo[2,1-f][1,2,4]triazin-7-yl)-N-(3,3-difluorocyclobutyl)-4-methylbenzenesulfonamide] | 100 to 500 | < 100 | 100 to 500 | 
Cc1ccc(S(=O)(=O)N[C@H]2CC[C@@](C)(O)CC2)cc1-c1cnc2c(N)ncnn12 [Example 133, 3-(4-aminoimidazo[2,1-f][1,2,4]triazin-7-yl)-N-((1S,4S)-4-hydroxy-4-methylcyclohexyl)-4-methylbenzenesulfonamide] |  | < 100 | 500 to 2000 | > 1000
Cc1ccc(S(=O)(=O)NCC2(F)CCOCC2)cc1-c1cnc2c(N)ncnn12 [Example 134, 3-(4-aminoimidazo[2,1-f][1,2,4]triazin-7-yl)-N-((4-fluorotetrahydro-2H-pyran-4-yl)methyl)-4-methylbenzenesulfonamide] | 100 to 500 | < 100 | 500 to 2000 | 
Cc1ccc(S(=O)(=O)NCC2CCS(=O)(=O)C2)cc1-c1cnc2c(N)ncnn12 (stereo not drawn) [Example 135, 3-(4-aminoimidazo[2,1-f][1,2,4]triazin-7-yl)-N-((1,1-dioxidotetrahydrothiophen-3-yl)methyl)-4-methylbenzenesulfonamide] | > 1000 | < 100 | 100 to 500 | 
Cc1ccc(S(=O)(=O)NCC2CCN(C(=O)C3CC3)CC2)cc1-c1cnc2c(N)nccn12 [Example 136, 3-(8-aminoimidazo[1,2-a]pyrazin-3-yl)-N-((1-(cyclopropanecarbonyl)piperidin-4-yl)methyl)-4-methylbenzenesulfonamide] | > 1000 | 100 to 500 | > 2000 | 
